Source: US6114310A, “Efflux pump inhibitors” (priority 1998, dated 2000)

System: Pseudomonas aeruginosa PAM1001
Experiment: microbe, parasite or virus in culture
Format: cell-based
Method in brief: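 Checkerboard broth microdilution (NCCLS) with the efflux pump inhibitor and levofloxacin, each diluted along one axis of the plate, in Mueller Hinton Broth. Inoculum 5×10^5 CFU/ml from early-log culture; incubation 20 h at 35° C. Growth read at 650 nm and visually.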

[1] = Table 1, EPI Conc. μg/ml (number not given; column between 10 and 40 μg/ml)
[2] = Table 2, EPI Conc. μg/ml (number not given; column between 10 and 40 μg/ml)
[3] = Table 3, EPI Conc. μg/ml (number not given; column between 10 and 40 μg/ml)
[4] = Table 4, EPI Conc. μg/ml (number not given; column between 10 and 40 μg/ml)

Row | Molecule | Levofloxacin MIC Against P. aeruginosa PAM1001 in Presence of Efflux Pump Inhibitor (EPI), Minimum Inhibitory Concentration (Table 1, EPI Conc. 0 μg/ml) | Levofloxacin MIC Against P. aeruginosa PAM1001 in Presence of Efflux Pump Inhibitor (EPI), Minimum Inhibitory Concentration (Table 1, EPI Conc. 0.625 μg/ml) | Levofloxacin MIC Against P. aeruginosa PAM1001 in Presence of Efflux Pump Inhibitor (EPI), Minimum Inhibitory Concentration (Table 1, EPI Conc. 5 μg/ml) | Levofloxacin MIC Against P. aeruginosa PAM1001 in Presence of Efflux Pump Inhibitor (EPI), Minimum Inhibitory Concentration (Table 1, EPI Conc. 10 μg/ml) | Levofloxacin MIC Against P. aeruginosa PAM1001 in Presence of Efflux Pump Inhibitor (EPI), Minimum Inhibitory Concentration (Table 1, EPI Conc. 40 μg/ml) | Levofloxacin MIC Against P. aeruginosa PAM1001 in Presence of Efflux Pump Inhibitor (EPI), Minimum Inhibitory Concentration [1] | Levofloxacin MIC Against P. aeruginosa PAM1001 in Presence of Efflux Pump Inhibitor (EPI), Minimum Inhibitory Concentration (Table 2, EPI Conc. 0 μg/ml) | Levofloxacin MIC Against P. aeruginosa PAM1001 in Presence of Efflux Pump Inhibitor (EPI), Minimum Inhibitory Concentration (Table 2, EPI Conc. 0.625 μg/ml) | Levofloxacin MIC Against P. aeruginosa PAM1001 in Presence of Efflux Pump Inhibitor (EPI), Minimum Inhibitory Concentration (Table 2, EPI Conc. 5 μg/ml) | Levofloxacin MIC Against P. aeruginosa PAM1001 in Presence of Efflux Pump Inhibitor (EPI), Minimum Inhibitory Concentration (Table 2, EPI Conc. 40 μg/ml) | Levofloxacin MIC Against P. aeruginosa PAM1001 in Presence of Efflux Pump Inhibitor (EPI), Minimum Inhibitory Concentration [2] | Levofloxacin MIC Against P. aeruginosa PAM1001 in Presence of Efflux Pump Inhibitor (EPI), Minimum Inhibitory Concentration (Table 3, EPI Conc. 0 μg/ml) | Levofloxacin MIC Against P. aeruginosa PAM1001 in Presence of Efflux Pump Inhibitor (EPI), Minimum Inhibitory Concentration (Table 3, EPI Conc. 0.625 μg/ml) | Levofloxacin MIC Against P. aeruginosa PAM1001 in Presence of Efflux Pump Inhibitor (EPI), Minimum Inhibitory Concentration (Table 3, EPI Conc. 5 μg/ml) | Levofloxacin MIC Against P. aeruginosa PAM1001 in Presence of Efflux Pump Inhibitor (EPI), Minimum Inhibitory Concentration (Table 3, EPI Conc. 10 μg/ml) | Levofloxacin MIC Against P. aeruginosa PAM1001 in Presence of Efflux Pump Inhibitor (EPI), Minimum Inhibitory Concentration [3] | Levofloxacin MIC Against P. aeruginosa PAM1001 in Presence of Efflux Pump Inhibitor (EPI), Minimum Inhibitory Concentration (Table 4, EPI Conc. 0 μg/ml) | Levofloxacin MIC Against P. aeruginosa PAM1001 in Presence of Efflux Pump Inhibitor (EPI), Minimum Inhibitory Concentration (Table 4, EPI Conc. 0.625 μg/ml) | Levofloxacin MIC Against P. aeruginosa PAM1001 in Presence of Efflux Pump Inhibitor (EPI), Minimum Inhibitory Concentration (Table 4, EPI Conc. 5 μg/ml) | Levofloxacin MIC Against P. aeruginosa PAM1001 in Presence of Efflux Pump Inhibitor (EPI), Minimum Inhibitory Concentration (Table 4, EPI Conc. 40 μg/ml) | also measured
1 | NCCCC(N)C(=O)N(CCCc1ccccc1)CCC(=O)Nc1ccc2ccccc2c1 (stereo not drawn) [Compound 21 (Table 3), Omithyl-β-(N-phenylpropyl)alanine 2-naphthylamide] | 4 µg/mL | 4 µg/mL | 1 µg/mL | 1 µg/mL | 0.25 µg/mL | 0.50 µg/mL | 4 µg/mL | 4 µg/mL | 2 µg/mL | 0.03 µg/mL | 0.03 µg/mL | 4 µg/mL | 4 µg/mL | 0.03 µg/mL | 0.03 µg/mL | 0.06 µg/mL | 4 µg/mL | 4 µg/mL | 0.50 µg/mL | 0.015 µg/mL | Levofloxacin MIC Against P. aeruginosa PAM1001 in Presence of Efflux Pump Inhibitor (EPI), Minimum Inhibitory Concentration (Table 2, EPI Conc. […]): 4 µg/mL; Levofloxacin MIC Against P. aeruginosa PAM1001 in Presence of Efflux Pump Inhibitor (EPI), Minimum Inhibitory Concentration (Table 3, EPI Conc. […]): 2 µg/mL; Levofloxacin MIC Against P. aeruginosa PAM1001 in Presence of Efflux Pump Inhibitor (EPI), Minimum Inhibitory Concentration (Table 4, EPI Conc. […]): 4 µg/mL; Levofloxacin MIC Against P. aeruginosa PAM1001 in Presence of Efflux Pump Inhibitor (EPI), Minimum Inhibitory Concentration [4]: 0.015 µg/mL
2 | D-Ornithyl-β-[N-(isobutyl)]alanine quinoline-3-amide [Compound 40 (Table 3)] | 4 µg/mL | 4 µg/mL | 1 µg/mL | 0.06 µg/mL | 0.015 µg/mL | 0.03 µg/mL | 4 µg/mL | 4 µg/mL | 1 µg/mL | 0.06 µg/mL | 0.06 µg/mL | 4 µg/mL | 4 µg/mL | 0.06 µg/mL | 0.015 µg/mL | 0.015 µg/mL | 4 µg/mL | 4 µg/mL | 1 µg/mL | 0.06 µg/mL | Levofloxacin MIC Against P. aeruginosa PAM1001 in Presence of Efflux Pump Inhibitor (EPI), Minimum Inhibitory Concentration (Table 1, EPI Conc. […]): 4 µg/mL; Levofloxacin MIC Against P. aeruginosa PAM1001 in Presence of Efflux Pump Inhibitor (EPI), Minimum Inhibitory Concentration (Table 2, EPI Conc. 10 μg/ml): 0.06 µg/mL; Levofloxacin MIC Against P. aeruginosa PAM1001 in Presence of Efflux Pump Inhibitor (EPI), Minimum Inhibitory Concentration (Table 3, EPI Conc. 40 μg/ml): 0.015 µg/mL; Levofloxacin MIC Against P. aeruginosa PAM1001 in Presence of Efflux Pump Inhibitor (EPI), Minimum Inhibitory Concentration (Table 4, EPI Conc. 10 μg/ml): 0.25 µg/mL; Levofloxacin MIC Against P. aeruginosa PAM1001 in Presence of Efflux Pump Inhibitor (EPI), Minimum Inhibitory Concentration [4]: 0.06 µg/mL
